Test results reported in article PMC5698967, “A novel GH10 xylanase from Penicillium sp. accelerates saccharification of alkaline-pretreated bagasse by an enzyme from recombinant Trichoderma reesei expressing Aspergillus β-glucosidase” (Biotechnology for Biofuels, 2017).

Molecular target: T1, PspXyn10 (Penicillium sp., UniProt A0A2Z5XER4)
T1 construct: full-length cDNA (404 residues), predicted signal peptide 1-22 removed on secretion; GH10 (25-336) + CBM1 (372-404); untagged, expressed in Trichoderma reesei C1PX10, purified; 55 kDa on SDS-PAGE; internal peptides LYYNDYNLESAGAK, NHLTNVVTHYK, YAWDVVNEGLNDDGTYR
T1 sequence (A0A2Z5XER4 23-404): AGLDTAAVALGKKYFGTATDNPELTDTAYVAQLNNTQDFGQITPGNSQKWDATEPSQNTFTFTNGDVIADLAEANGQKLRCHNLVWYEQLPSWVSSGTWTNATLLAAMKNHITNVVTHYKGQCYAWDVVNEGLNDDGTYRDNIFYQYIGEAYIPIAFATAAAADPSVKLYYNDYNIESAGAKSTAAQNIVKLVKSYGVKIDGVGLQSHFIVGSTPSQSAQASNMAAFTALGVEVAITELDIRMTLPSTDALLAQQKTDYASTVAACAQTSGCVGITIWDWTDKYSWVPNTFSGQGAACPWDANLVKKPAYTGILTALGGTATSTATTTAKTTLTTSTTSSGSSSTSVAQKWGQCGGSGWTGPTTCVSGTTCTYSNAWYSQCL
Test: p-nitrophenol release, absorbance at […] nm
Format: biochemical
Conditions: 1 mM substrate; 50 mM sodium acetate pH 5.0; 50 °C; 5 min

## O=[N+]([O-])c1ccc(O[C@@H]2OC[C@@H](O[C@@H]3OC[C@@H](O)[C@H](O)[C@H]3O)[C@H](O)[C@H]2O)cc1 [pNPX2, p-nitrophenyl xylobioside]
  specific activity: enzymatic activity of purified PspXyn10, JN11H, and JNK25H against p-nitrophenyl xylobioside (pNPX2) was assayed
